ChEMBL document CHEMBL1921771, “Structure-activity relationships of ganoderma acids from Ganoderma lucidum as aldose reductase inhibitors” (Bioorg Med Chem Lett, 2011)

Molecular target: Aldo-keto reductase family 1 member B1 (Homo sapiens, UniProt P15121)
Assay: Inhibition of recombinant human aldose reductase using dl-glyceraldehyde as substrate after 10 mins by spectrophotometry

SMILES | IC50
COC(=O)C(C)CC(=O)C[C@@H](C)[C@H]1CC(=O)[C@@]2(C)C3=C([C@@H](O)C[C@]12C)[C@@]1(C)CCC(=O)C(C)(C)[C@@H]1C[C@@H]3O (some centres not stated) | > 189 µM
COC(=O)[C@H](C)CC(=O)C[C@@H](C)[C@H]1C[C@H](O)[C@@]2(C)C3=C(C(=O)C[C@]12C)[C@@]1(C)CC[C@H](O)C(C)(C)[C@@H]1C[C@@H]3O | > 184 µM
C/C(=C\C(=O)CC(C)C(=O)O)[C@H]1C[C@H](O)[C@@]2(C)C3=C(C(=O)C[C@]12C)[C@@]1(C)CCC(=O)C(C)(C)[C@@H]1C[C@@H]3O (some centres not stated) [GANODERENIC ACID A] | 119 µM
C[C@H](CC(=O)C[C@@H](C)[C@H]1C[C@H](O)[C@@]2(C)C3=C(C(=O)C[C@]12C)[C@@]1(C)CCC(=O)C(C)(C)[C@@H]1C[C@@H]3O)C(=O)O [GANODERIC ACID A] | > 193 µM
CC(CC(=O)C[C@@H](C)[C@H]1CC(=O)[C@@]2(C)C3=C(C(=O)C[C@]12C)[C@@]1(C)CC[C@H](O)C(C)(C)[C@@H]1C[C@@H]3O)C(=O)O (some centres not stated) [GANODERIC ACID B] | > 193 µM
C[C@H](CC(=O)C[C@@H](C)[C@H]1CC(=O)[C@@]2(C)C3=C(C(=O)C[C@]12C)[C@@]1(C)CCC(=O)C(C)(C)[C@@H]1C[C@@H]3O)C(=O)O [GANODERIC ACID C1] | > 194 µM
C[C@H](CC(=O)C[C@@H](C)[C@H]1C[C@H](O)[C@@]2(C)C3=C(C(=O)C[C@]12C)[C@@]1(C)CC[C@H](O)C(C)(C)[C@@H]1C[C@@H]3O)C(=O)O [GANODERIC ACID C2] | 43.8 µM
CC(CC(=O)C[C@@H](C)[C@H]1CC(=O)[C@@]2(C)C3=C(C(=O)[C@@H](O)[C@]12C)[C@@]1(C)CC[C@H](O)C(C)(C)[C@@H]1CC3=O)C(=O)O (some centres not stated) [GANODERIC ACID C6] | > 193 µM
CC(CC(=O)C[C@@H](C)[C@H]1CC(=O)[C@@]2(C)C3=C([C@@H](O)C[C@]12C)[C@@]1(C)CCC(=O)C(C)(C)[C@@H]1C[C@@H]3O)C(=O)O (some centres not stated) [GANODERIC ACID DF] | 22.8 µM
CC(CC(=O)C[C@@H](C)[C@H]1CC(=O)[C@@]2(C)C3=C(C(=O)C[C@]12C)[C@@]1(C)CCC(=O)C(C)(C)[C@@H]1C[C@@H]3O)C(=O)O (some centres not stated) [GANODERIC ACID D] | > 195 µM
CC(CC(=O)C[C@@H](C)[C@H]1CC(=O)[C@@]2(C)C3=C(C(=O)[C@@H](O)[C@]12C)[C@@]1(C)CC[C@H](O)C(C)(C)[C@@H]1C[C@@H]3O)C(=O)O (some centres not stated) [GANODERIC ACID G] | > 188 µM
CC(=O)O[C@@H]1C(=O)C2=C(C(=O)C[C@H]3C(C)(C)[C@@H](O)CC[C@]23C)[C@]2(C)C(=O)C[C@H]([C@H](C)CC(=O)CC(C)C(=O)O)[C@@]12C (some centres not stated) [GANODERIC ACID H] | > 175 µM
CC(CC(=O)C[C@@H](C)[C@H]1C[C@H](O)[C@@]2(C)C3=C(C(=O)C[C@]12C)[C@@]1(C)CCC(=O)C(C)(C)[C@@H]1CC3=O)C(=O)O (some centres not stated) [GANODERIC ACID J] | > 194 µM
CC(=O)O[C@@H]1C(=O)C2=C([C@@H](O)C[C@H]3C(C)(C)[C@@H](O)CC[C@]23C)[C@]2(C)C(=O)C[C@H]([C@H](C)CC(=O)CC(C)C(=O)O)[C@@]12C (some centres not stated) [GANODERIC ACID K] | > 174 µM
CC(CC(=O)C[C@@H](C)[C@H]1C[C@H](O)[C@@]2(C)C3=C(C(=O)C[C@]12C)[C@@]1(C)CC[C@H](O)C(C)(C)[C@@H]1CC3)C(=O)O (some centres not stated) [GANOLUCIDIC ACID B] | > 199 µM
COC(=O)C(C)CC(=O)C[C@@H](C)[C@H]1C[C@H](O)[C@@]2(C)C3=C(C(=O)C[C@]12C)[C@@]1(C)CCC(=O)C(C)(C)[C@@H]1C[C@@H]3O (some centres not stated) [METHYL GANODERATE A] | > 189 µM
COC(=O)C(C)CC(=O)/C=C(\C)[C@H]1C[C@H](O)[C@@]2(C)C3=C(C(=O)C[C@]12C)[C@@]1(C)CCC(=O)C(C)(C)[C@@H]1C[C@@H]3O (some centres not stated) [METHYL GANODERENATE A] | > 184 µM
